In brackets after ≈: the same amount, converted by molar mass. Several values for one entry are separate records, joined by “and”; a condition that tells them apart may be missing. Identical values can stand only once. Like-named read-outs stand apart in the source and are kept apart here.
How the values were obtained:
[1] = tested on: voltage-dependent Ca2+ channels (isolated rat ileum); assay: Calcium antagonism: relaxation of K+; details: K+ (80 mM)-induced contractions of rat ileum; mean ± SD, three independent experiments
[2] = target: ACE2:SARS-CoV-2 Spike (RBD) (Homo sapiens, UniProt Q9BYF1); assay: biochemical; format: binding
Sequence of ACE2:SARS-CoV-2 Spike (RBD) (Q9BYF1 18-740): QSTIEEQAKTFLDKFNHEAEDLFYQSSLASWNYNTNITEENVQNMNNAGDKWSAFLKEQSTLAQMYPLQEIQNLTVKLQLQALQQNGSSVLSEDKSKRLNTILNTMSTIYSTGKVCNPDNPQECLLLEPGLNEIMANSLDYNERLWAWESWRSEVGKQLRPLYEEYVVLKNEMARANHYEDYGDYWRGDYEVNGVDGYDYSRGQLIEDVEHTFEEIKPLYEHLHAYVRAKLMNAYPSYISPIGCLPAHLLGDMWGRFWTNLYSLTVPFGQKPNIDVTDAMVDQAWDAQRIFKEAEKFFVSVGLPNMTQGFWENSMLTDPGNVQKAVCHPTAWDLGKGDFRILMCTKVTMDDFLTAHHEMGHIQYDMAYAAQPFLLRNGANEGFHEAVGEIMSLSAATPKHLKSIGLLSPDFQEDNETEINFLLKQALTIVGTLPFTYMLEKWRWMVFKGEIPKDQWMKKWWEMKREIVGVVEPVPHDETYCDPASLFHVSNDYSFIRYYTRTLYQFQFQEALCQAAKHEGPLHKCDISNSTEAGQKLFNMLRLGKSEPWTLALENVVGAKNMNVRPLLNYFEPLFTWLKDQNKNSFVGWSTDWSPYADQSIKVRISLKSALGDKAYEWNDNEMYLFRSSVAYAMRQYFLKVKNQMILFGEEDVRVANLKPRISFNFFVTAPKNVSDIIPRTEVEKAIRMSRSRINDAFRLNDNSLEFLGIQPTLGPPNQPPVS

[3] = tested on: PMA-differentiated THP-1 cells; assay: PMA-differentiated THP-1 cell viability assay; format: cell-based; details: Homo sapiens, THP-1, 24 h
Male Wistar albino rats = format: in vivo, rat; details: mean arterial BP compared to the control group
[4] = tested on: IL-6 production in LPS-stimulated THP-1 cells; assay: IL-6 production by LPS-stimulated PMA-differentiated THP-1 cells; format: cell-based, human; details: compared to LPS (positive control); for Reduction of IL-6 level: compound at 1/4 IC50, added 2 h prior to LPS 0.5 μg/mL, 24 h
[5] = tested on: CRP production in LPS-stimulated THP-1 cells; assay: CRP production by LPS-stimulated PMA-differentiated THP-1 cells; format: cell-based, human; details: compared to LPS (positive control); for Effect on CRP level (in words): compound at 1/4 IC50, LPS 0.5 μg/mL

Row | Structure (SMILES) | IC50 [1] | IC50 [2] | IC50 [3] | IC50 ([3]; read-out: IC50 µM) | % reduction in BP (Male Wistar albino rats) | Reduction of IL-6 level [4] | Effect on CRP level (in words) [5] | Effect on IL-6 level (in words) ([4]; compound at 1/4 IC50, LPS 0.5 μg/mL) | Decrease in the level of CRP ([5]; compound at 1/4 IC50, added 2 h prior to LPS 0.5 μg/mL, 24 h)
1 | CCOC(=O)C1=C(C)NC(=S)NC1c1ccccc1C#N (stereo not shown) [Compound 4a, Ethyl-4-(2-cyanophenyl)-6-methyl-2-thioxo-1,2,3,4-tetrahydropyrimidine-5-carboxylate] | 23.07 ± 1.53 µg/mL (≈ 76.6 µM) | 8.5 ± 0.92 nM | 1550 ± 134 µg/mL | 533 µM | – | – | – | – | –
2 | CCOC(=O)C1=C(C)NC(=S)NC1c1ccccc1Cl (stereo not shown) [Compound 4b, Ethyl-4-(2-chlorophenyl)-6-methyl-2-thioxo-1,2,3,4-tetrahydropyrimidine-5-carboxylate] | 24.69 ± 2.35 µg/mL (≈ 79.4 µM) | ~12.5 nM and 12.5 nM | 698 ± 65.6 µg/mL | 231 µM | – | – | – | – | –
3 | CCOC(=O)C1=C(C)NC(=S)NC1c1ccccc1Br (stereo not shown) [Compound 4c, Ethyl-4-(2-bromophenyl)-6-methyl-2-thioxo-1,2,3,4-tetrahydropyrimidine-5-carboxylate] | 23.62 ± 2.33 µg/mL (≈ 66.5 µM) | 23 ± 1 nM | – | – | about 21% | – | – | – | –
4 | CC1=C(C(=O)O)C(c2ccccc2C#N)NC(=S)N1 (stereo not shown) [Compound 5a, 4-(2-cyanophenyl)-6-methyl-2-thioxo-1,2,3,4-tetrahydropyrimidine-5-carboxylic acid] | 24.37 ± 1.45 µg/mL (≈ 89.2 µM) | 9.8 ± 1.06 nM | 496 ± 38.7 µg/mL | 118 µM | – | about 56% | moderate decrease | – | –
5 | CC1=C(C(=O)O)C(c2ccccc2Cl)NC(=S)N1 (stereo not shown) [Compound 5b, 4-(2-chlorophenyl)-6-Methyl-2-thioxo-1,2,3,4-tetrahydropyrimidine-5-carboxylic acid] | 25.25 ± 1.39 µg/mL (≈ 89.3 µM) | ~12.5 nM and 12.5 nM | 967 ± 79.2 µg/mL | 342 µM | – | – | – | – | –
6 | CC1=C(C(=O)Cl)C(c2ccccc2C#N)NC(=S)N1 (stereo not shown) [Compound 6a, 6-Methyl-4-(2-cyanophenyl)-2-thioxo-1,2,3,4-tetrahydropyrimidine-5-carbonyl chloride] | 26.84 ± 1.51 µg/mL | 17.5 ± 1.31 nM | – | – | – | – | – | – | –
7 | CC1=C(C(=O)Cl)C(c2ccccc2Cl)NC(=S)N1 (stereo not shown) [Compound 6b, 6-Methyl-4-(2-chlorophenyl)-2-thioxo-1,2,3,4-tetrahydropyrimidine-5-carbonyl chloride] | 30.78 ± 2.52 µg/mL | 23.7 ± 1.35 nM | – | – | – | – | – | – | –
8 | CC1=C(C(=O)Cl)C(c2ccccc2Br)NC(=S)N1 (stereo not shown) [Compound 6c, 6-Methyl-4-(2-bromophenyl)-2-thioxo-1,2,3,4-tetrahydropyrimidine-5-carbonyl chloride] | 29.73 ± 2.44 µg/mL | 16.5 ± 1.08 nM | – | – | – | – | – | – | –
9 | CC1=C(C(=O)Nc2ccccc2)C(c2ccccc2C#N)NC(=S)N1 (stereo not shown) [Compound 7a, 4-(2-cyanophenyl)-6-methyl-N-phenyl-2-thioxo-1,2,3,4-tetrahydropyrimidine-5-carboxamide] | 19.65 ± 1.60 µg/mL (≈ 56.4 µM) | 11.6 ± 0.94 nM | 434 ± 32.9 µg/mL | 123 µM | up to 29% | – | – | lowest effect | –
10 | CC1=C(C(=O)Nc2ccc(C)cc2)C(c2ccccc2C#N)NC(=S)N1 (stereo not shown) [Compound 7b, 4-(2-cyanophenyl)-6-methyl-N-(4-methylphenyl)-2-thioxo-1,2,3,4-tetrahydropyrimidine-5-carboxamide] | 22.81 ± 2.46 µg/mL (≈ 62.9 µM) | 10.8 ± 0.75 nM | 222 ± 10.1 µg/mL | 61 µM | – | 47% | moderate decrease | – | –
11 | CC1=C(C(=O)Nc2ccc(F)cc2)C(c2ccccc2C#N)NC(=S)N1 (stereo not shown) [Compound 7c, 4-(2-cyanophenyl)-6-methyl-N-(4–fluorophenyl)-2-thioxo-1,2,3,4-tetrahydropyrimidine-5-carboxamide] | 22.85 ± 1.11 µg/mL (≈ 62.4 µM) | 20.1 ± 1.1 nM | – | – | – | – | – | – | –
12 | CC1=C(C(=O)Nc2ccccc2)C(c2ccccc2Cl)NC(=S)N1 (stereo not shown) [Compound 8a, 4-(2-chlorophenyl)-6-methyl-N-phenyl-2-thioxo-1,2,3,4-tetrahydropyrimidine-5-carboxamide] | 20.23 ± 1.79 µg/mL (≈ 56.5 µM) | 10.6 ± 0.61 nM | 464 ± 29.7 µg/mL | 125 µM | up to 29% | – | – | – | –
13 | CC1=C(C(=O)Nc2ccc(C)cc2)C(c2ccccc2Cl)NC(=S)N1 (stereo not shown) [Compound 8b, 4-(2-chlorophenyl)-6-methyl-N-(4-methylphenyl)-2-thioxo-1,2,3,4-tetrahydropyrimidine-5-carboxamide] | 22.91 ± 2.59 µg/mL (≈ 61.6 µM) | 19.2 ± 1.11 nM | – | – | – | – | – | – | –
14 | CC1=C(C(=O)Nc2ccccc2)C(c2ccccc2Br)NC(=S)N1 (stereo not shown) [Compound 9a, 4-(2-bromophenyl)-6-methyl-N-phenyl-2-thioxo-1,2,3,4-tetrahydropyrimidine-5-carboxamide] | 21.45 ± 2.55 µg/mL (≈ 53.3 µM) | 13.7 ± 1.37 nM | 484.9 ± 3.24 µg/mL | 116 µM | 27% | ~79% | – | – | about 95%

— PMC8403975 (Bioorganic Chemistry, 2021)
